For one experiment, the target named is T1, mTREK-1 −43 (Mus musculus, UniProt P97438).
T1 construct: expressed in transfected cells; host or cells: Xenopus oocytes (mRNA injection); gene synthesized by GeneCust
The experiment in a line: TEVC control: unfused N-terminally truncated mTREK-1 −43. The class given is cell-based. To be noted: 10 μM BL1249, TEVC. As for the experimental part: (§1) Microelectrodes were filled with […]. […] The membrane voltage was clamped to −50 mV.

Experiment [1] addresses T2, M2_T-00-43 (UniProt P08172+P97438).
T2 sequence (P08172+P97438 with tags, fused parts or gaps): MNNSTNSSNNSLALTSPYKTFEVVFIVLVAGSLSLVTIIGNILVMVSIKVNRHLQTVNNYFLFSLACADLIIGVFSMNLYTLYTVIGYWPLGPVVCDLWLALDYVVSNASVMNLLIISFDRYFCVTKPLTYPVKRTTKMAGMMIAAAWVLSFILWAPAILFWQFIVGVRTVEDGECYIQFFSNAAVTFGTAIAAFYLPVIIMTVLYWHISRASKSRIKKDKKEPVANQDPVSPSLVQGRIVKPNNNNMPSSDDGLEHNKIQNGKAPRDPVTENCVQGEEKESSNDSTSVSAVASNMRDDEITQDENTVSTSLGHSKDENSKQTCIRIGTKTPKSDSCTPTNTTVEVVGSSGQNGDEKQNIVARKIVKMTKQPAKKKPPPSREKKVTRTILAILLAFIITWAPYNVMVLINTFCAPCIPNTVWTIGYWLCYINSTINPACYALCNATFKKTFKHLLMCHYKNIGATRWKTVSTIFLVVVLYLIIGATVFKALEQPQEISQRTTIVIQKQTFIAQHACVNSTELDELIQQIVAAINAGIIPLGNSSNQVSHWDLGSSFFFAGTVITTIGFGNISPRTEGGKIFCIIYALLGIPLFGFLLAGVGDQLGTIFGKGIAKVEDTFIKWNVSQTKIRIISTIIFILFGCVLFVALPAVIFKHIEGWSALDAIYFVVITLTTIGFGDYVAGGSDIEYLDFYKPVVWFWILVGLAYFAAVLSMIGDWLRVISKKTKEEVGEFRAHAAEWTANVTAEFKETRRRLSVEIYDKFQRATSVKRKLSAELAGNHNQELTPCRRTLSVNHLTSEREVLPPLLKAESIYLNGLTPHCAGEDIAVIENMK
In words: Whole-cell patch-clamp on HEK293 cells expressing M2_T-00-43. Set-up: expressed in transfected cells; host or cells: HEK293 (pIRES2-eGFP vector). It is filed as cell-based, human (M2), mouse (TREK-1). As for the experimental part: HEK293 cells were grown in 75-mm tissue-culture dishes (Falcon, Franklin Lakes, NJ) in Dulbecco’s modified Eagle’s medium (Gibco, Life Technologies, Saint Aubin, France) supplemented with 10% fetal calf serum (Hyclone, Thermo Fisher Scientific GMBH, Ulm, Germany) and 1% penicillin/streptomycin (Gibco, Life Technologies, Saint Aubin, France) in a humidified incubator at 37 °C (5% CO2). For electrophysiology of ICCRs, […] of plasmid was transfected using Jet-PEI (PolyPlus Transfection, Illkirch FRANCE) according to the manufacturer’s instructions. Cells were plated onto 35-mm dishes 24 h before transfection, and experiments were performed over the following 1–2 days.
Pipettes were pulled from hematocrit-capillaries (Hirschmann Laborgeraete, Germany) using a vertical puller (PC-10, Narishige International, London, United Kingdom), and had resistances of 3–6 MΩ when filled with internal solution and measured in standard bath solution. Whole cell membrane currents were measured and filtered at 3 kHz by a MultiClamp 700A patch clamp amplifier (Molecular Devices), and digitized at 10 kHz using a 12-bit analog-to-digital converter Digidata-1322A (Axon Instrument, Sunnyvale, CA, United States). Recordings were done using Clampex 9 software (Axon Instrument). […]
Background: In patch-clamp work, channel activity is measured electrically.

A further experiment has as its target T3, M2_Kcv-09-03 (UniProt P08172+Q84568).
T3 construct: expressed in transfected cells; host or cells: Xenopus oocytes (mRNA injection)
T3 sequence (P08172+Q84568 with tags, fused parts or gaps): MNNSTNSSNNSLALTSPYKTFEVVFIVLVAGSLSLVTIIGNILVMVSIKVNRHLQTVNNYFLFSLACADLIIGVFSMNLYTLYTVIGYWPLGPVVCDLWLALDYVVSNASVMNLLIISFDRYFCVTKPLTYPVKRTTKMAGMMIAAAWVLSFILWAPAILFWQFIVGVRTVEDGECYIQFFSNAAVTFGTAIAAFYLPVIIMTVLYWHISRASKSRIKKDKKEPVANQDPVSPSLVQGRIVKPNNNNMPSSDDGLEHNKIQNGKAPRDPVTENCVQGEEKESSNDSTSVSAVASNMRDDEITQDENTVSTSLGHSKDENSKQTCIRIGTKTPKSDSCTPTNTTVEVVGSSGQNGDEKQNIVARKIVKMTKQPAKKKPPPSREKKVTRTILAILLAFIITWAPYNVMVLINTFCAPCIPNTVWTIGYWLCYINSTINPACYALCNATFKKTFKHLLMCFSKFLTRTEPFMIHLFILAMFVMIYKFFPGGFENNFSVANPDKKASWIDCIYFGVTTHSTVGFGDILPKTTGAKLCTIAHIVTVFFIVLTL
In words: TEVC recording of M2_Kcv-09-03 ICCR expressed in Xenopus oocytes. It is filed as cell-based, human (M2), Paramecium bursaria chlorella virus 1 (Kcv). As for the experimental part:
as §1

A further experiment deals with M2_Kir6.2-09-25. Also noted: method as in Moreau et al., 2017. To be noted: Kir6.2 ICCRs; ref Moreau et al., 2017; read-out: IC50 observed with Kir6.2 ICCRs; cited from earlier work.
Experiment [2] addresses T2, M2_T-00-43. In words: TEVC recording of M2_T-00-43 ICCR in Xenopus oocytes. It is filed as cell-based, human (M2), mouse (TREK-1). Set-up: full-length (−00) or M2 deleted of its last nine residues (−09) in the indicated ICCRs; expressed in transfected cells; host or cells: Xenopus oocytes (mRNA injection). As for the experimental part: (§2) Xenopus oocytes were prepared as previously reported ([Moreau et al., 2008]). Briefly, after surgical retrieval, the oocytes were defolliculated by type 1A collagenase. Each oocyte was injected with 50 nl of RNAse-free water containing the desired mRNAs. The mRNA quantities used per oocyte were: ICCR with Kcv, 2.7 ng (M2_Kcv and D2_Kcv) and 2.9 ng (OXTR_Kcv); ICCR with mTREK-1, 4.2 ng; ICCR with Kir6.2, 4.3 ng; M2, 2.3 ng; D2, 2.2 ng; Kir3.4T, 2.2 ng; Kcv 0.46 ng and mTREK-1, 2.1 ng. Microinjected oocytes were incubated 2 to 3 days at 19°C in modified-Barth's solution (in mM: 1 KCl, 0.82 MgSO4, 88 NaCl, 2.4 NaHCO3, 0.41 CaCl2, 16 HEPES, pH 7.4) supplemented with 100 U.ml^−1 of penicillin and streptomycin and 0.1 mg.mL^−1 of gentamycin. Animal handling and experiments fully conformed to European regulations and were approved by the French Ministry of Higher Education and Research (APAFIS#4420-2016030813053199 v4 to CM). Authorization of the animal facility has been delivered by the Prefect of Isere (Authorization #D 38 185 10 001).
(§3) Two-electrode voltage-clamp (TEVC) recordings were performed automatically with HiClamp robots (MultiChannel Systems). These TEVC robots rapidly change the applied solutions by transferring the oocytes in different wells of a 96-well plate. […] Microelectrodes were filled with […]. During recordings, oocytes were incubated in low potassium concentration buffer (ND96, in mM: 96 NaCl, 2 KCl, 1.8 CaCl2, 1 MgCl2, 5 HEPES, pH 7.4 supplemented with 0.3 niflumic acid), and in high potassium buffer (in mM: 91 KCl, 1.8 CaCl2, 1 MgCl2, 5 HEPES, 0.3 niflumic acid, pH 7.4). The membrane voltage was clamped to −50 mV. Ligands and BaCl2 were diluted in the high potassium buffer. […] Ligand effects were measured in high potassium concentration buffer with the membrane potential clamped to −50 mV and at 19°C.
(§4) Change of potassium current induced by ligand was calculated either with the barium-sensitive currents as a 0-reference for Kcv-based ICCRs or with the currents in ND96 for mTREK-1 ICCRs. Softwares created by Michel Vivaudou ([Vivaudou, 2019]) were used to extract the raw data.

The next experiment concerns the target D2_T+09M2-43 (UniProt P14416+P97438). To be noted: TEVC. As to the method:
as §2, §3, §4

The target of a further experiment is D2_T-00-43 (UniProt P14416+P97438). To be noted: weak inhibition, mean ± SEM. As for the experimental part:
as §2, §3, §4

In experiment [3] the test system is Kir3.4T co-expressed with D2_Kcv-00-03. To be noted: TEVC, Xenopus oocytes. As to the method: as §2, §3, §4
Experiment [4] deals with unfused D2L and mTREK-1 (D2+mTREK-1) (Homo sapiens, UniProt P14416). To be noted: control with co-expression of the unfused proteins, mean ± SEM. As for the experimental part:
as §2, §3, §4

A further experiment relates to D2_K+09M2-25. The note with it: read-out: EC50 on the equivalent Kir6.2 ICCR (D2_K+09M2-25); ref Moreau et al., 2008; cited from earlier work.
In another experiment the test system is OXTR[T4L]_Kcv-42-03. The experiment in a line: TEVC recording of OXTR[T4L]_Kcv-42-03 in Xenopus oocytes. It is filed as cell-based, human (OXTR), Paramecium bursaria chlorella virus 1 (Kcv). As for the experimental part:
as §2, with “Authorization of the animal facility has been delivered by the Prefect of Isere (Authorization #D 38 185 10 001).” left out
Two-electrode voltage-clamp (TEVC) recordings were performed automatically with HiClamp robots (MultiChannel Systems). […] Ligand effects were measured in high potassium concentration buffer with the membrane potential clamped to −50 mV and at 19°C.
Change of potassium current induced by ligand was calculated either with the barium-sensitive currents as a 0-reference for Kcv-based ICCRs or with the currents in ND96 for mTREK-1 ICCRs. […]

Setting [5] is: concentration-effect curve, TEVC.

Data on six molecules can be found in PMC8688152, “Distinct classes of potassium channels fused to GPCRs as electrical signaling biosensors” (Cell Reports Methods, 2021).

pEC50, pIC50: −log10 of the molar value.

One may read the pIC50 as the negative decadic logarithm of the IC50, by convention in mol/L. Broadly, the pEC50 is the EC50 on a negative log10 scale, so that one unit is a factor of ten.

Chain of D2_T+09M2-43 (P14416+P97438 fused): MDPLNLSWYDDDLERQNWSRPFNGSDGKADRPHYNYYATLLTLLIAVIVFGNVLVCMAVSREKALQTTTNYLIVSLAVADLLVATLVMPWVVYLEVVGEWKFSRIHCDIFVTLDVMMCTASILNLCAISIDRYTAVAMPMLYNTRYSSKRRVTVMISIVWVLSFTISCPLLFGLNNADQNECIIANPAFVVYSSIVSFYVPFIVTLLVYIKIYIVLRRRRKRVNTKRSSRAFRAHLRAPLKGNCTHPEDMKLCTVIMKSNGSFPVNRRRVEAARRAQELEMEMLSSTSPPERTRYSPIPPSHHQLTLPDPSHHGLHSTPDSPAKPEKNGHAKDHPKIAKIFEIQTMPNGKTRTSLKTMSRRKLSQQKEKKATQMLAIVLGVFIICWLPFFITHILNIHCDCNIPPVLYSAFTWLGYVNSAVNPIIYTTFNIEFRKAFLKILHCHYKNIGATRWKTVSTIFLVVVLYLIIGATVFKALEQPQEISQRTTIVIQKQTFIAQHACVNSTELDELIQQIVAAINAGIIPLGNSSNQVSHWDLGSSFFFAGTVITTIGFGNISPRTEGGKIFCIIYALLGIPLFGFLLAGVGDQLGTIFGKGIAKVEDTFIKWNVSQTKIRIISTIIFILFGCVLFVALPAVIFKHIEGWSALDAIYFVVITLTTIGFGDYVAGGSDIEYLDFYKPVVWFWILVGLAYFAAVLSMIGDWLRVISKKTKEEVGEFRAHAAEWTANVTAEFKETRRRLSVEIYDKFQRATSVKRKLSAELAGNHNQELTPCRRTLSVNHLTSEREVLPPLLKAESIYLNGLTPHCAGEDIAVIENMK
Chain of unfused D2L and mTREK-1 (D2+mTREK-1) (P14416 whole entry, the tested form may be a part): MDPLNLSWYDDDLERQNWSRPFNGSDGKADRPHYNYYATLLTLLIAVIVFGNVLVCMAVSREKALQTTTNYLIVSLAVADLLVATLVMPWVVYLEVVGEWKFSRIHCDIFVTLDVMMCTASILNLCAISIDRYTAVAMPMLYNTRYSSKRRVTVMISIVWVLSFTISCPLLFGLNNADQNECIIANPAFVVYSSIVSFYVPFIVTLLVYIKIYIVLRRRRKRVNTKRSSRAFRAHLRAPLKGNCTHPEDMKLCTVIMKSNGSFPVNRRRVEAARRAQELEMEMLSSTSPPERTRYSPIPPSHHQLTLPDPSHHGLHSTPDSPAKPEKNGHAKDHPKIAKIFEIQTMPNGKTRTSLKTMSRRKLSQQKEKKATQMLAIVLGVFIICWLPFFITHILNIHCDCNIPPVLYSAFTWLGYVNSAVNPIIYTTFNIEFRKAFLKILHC
Chain of D2_T-00-43 (P14416+P97438 fused): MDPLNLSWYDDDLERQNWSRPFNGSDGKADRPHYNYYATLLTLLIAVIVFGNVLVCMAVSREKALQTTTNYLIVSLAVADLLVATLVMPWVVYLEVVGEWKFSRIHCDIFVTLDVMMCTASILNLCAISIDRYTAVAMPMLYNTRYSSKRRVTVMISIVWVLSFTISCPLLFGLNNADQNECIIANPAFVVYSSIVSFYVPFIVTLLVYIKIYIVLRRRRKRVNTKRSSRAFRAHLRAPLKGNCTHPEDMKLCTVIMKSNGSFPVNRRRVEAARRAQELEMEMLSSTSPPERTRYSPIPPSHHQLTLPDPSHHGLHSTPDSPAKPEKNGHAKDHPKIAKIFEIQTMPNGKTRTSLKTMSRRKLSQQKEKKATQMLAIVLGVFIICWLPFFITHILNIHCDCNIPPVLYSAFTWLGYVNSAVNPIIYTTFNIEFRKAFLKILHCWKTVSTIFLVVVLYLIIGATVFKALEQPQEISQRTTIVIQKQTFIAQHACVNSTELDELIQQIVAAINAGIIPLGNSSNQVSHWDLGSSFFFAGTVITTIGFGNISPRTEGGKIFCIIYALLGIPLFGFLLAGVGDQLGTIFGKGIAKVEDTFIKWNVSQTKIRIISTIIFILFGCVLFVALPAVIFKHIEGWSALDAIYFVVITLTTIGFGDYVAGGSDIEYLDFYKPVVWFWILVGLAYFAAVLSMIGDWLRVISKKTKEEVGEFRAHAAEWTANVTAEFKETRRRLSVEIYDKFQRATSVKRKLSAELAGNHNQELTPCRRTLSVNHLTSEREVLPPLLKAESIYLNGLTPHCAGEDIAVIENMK

As to `c1ccc(-c2nn[nH]n2)c(Nc2cccc3c2CCCC3)c1` [BL1249], the “activation of unfused truncated mTREK-1 −43 by BL1249, compared with WT channel” value on mTREK-1 −43 is on record as “lower activation”. In addition, the “activation of M2_T-00-43: increase of the current” value on M2_T-00-43 [1] (10 μM BL1249, mean ± SEM) was 880% ± 190%.
Consider `C[N+](C)(C)CCOC(N)=O` [CCh, carbachol], for which the “Hill coefficient (nH) on M2_Kcv-09-03” value at M2_Kcv-09-03 (setting [5]) amounted to 0.98. Also, the pIC50 in the experiment with M2_Kir6.2-09-25 was 5.92. Also, the “Hill coefficient (nH) on M2_T-00-43” value at M2_T-00-43 [2] (setting [5]) is 0.97.
As to `CN1[C@@H]2CC[C@H]1C[C@@H](OC(=O)C(CO)c1ccccc1)C2` (stereo partly drawn) [atropine], the “effect of atropine co-application on the ACh response of M2_Kcv-09-03” value on M2_Kcv-09-03 (1 μM atropine co-applied with ACh 5 μM) is “almost entirely abolished the ACh response”. In addition, on M2_T-00-43 [2], the “effect of atropine co-application on ACh-induced activation of M2_T-00-43” value is on record as “inhibited ACh-induced activation”.
For `NCCc1ccc(O)c(O)c1` [dopamine], the “activation: % of current change induced by 5 μM dopamine on D2_T+09M2-43” value on D2_T+09M2-43 (5 μM, Xenopus oocytes, mean ± SEM) is recorded as 12.1% ± 1.7%. Also, the “Hill coefficient (nH) on D2_T+09M2-43” value at D2_T+09M2-43 (concentration-effect curve) is given as 0.76. At D2_T-00-43, the “% of current change induced by 5 μM dopamine on D2_T-00-43” value is given as −4.1% ± 0.6%. The “G protein activation (Kir3.4T) by D2_Kcv-00-03 upon dopamine application” value in experiment [3] is on record as “triggers the activation of the endogenous Gi/o proteins”. The “% of current change induced by 5 μM dopamine on unfused D2 + mTREK-1” value in experiment [4] is on record as −2.2% ± 1.3%. Further, in the experiment on D2_K+09M2-25, the pEC50 was 6.40.
Take oxytocin: the “response of OXTR[T4L]_Kcv-42-03 to oxytocin” value in the experiment on OXTR[T4L]_Kcv-42-03 was “did not induce any response”.
With spadin, the “inhibition of BL1249 activation of M2_T-00-43” value on M2_T-00-43 [1] (1 μM spadin with 10 μM BL1249, mean ± SEM) is 56.8% ± 9.1%.
